Consider four substances from article PMC12467535 (Biomedicines, 2025).

The conditions of data set [1]: minipig, in vivo.
Method: (§2) Prior to the IVT injection, a combination of 100 mg Telazol, 50 mg ketamine, and 50 mg xylazine per mL of solution was administered via intramuscular injection at 0.03–0.06 mL/kg. For two animals, dexmedetomidine (0.02 or 0.03 mg/kg) was administered as a supplementary anesthetic via intramuscular injection. Proparacaine was then administered to eye, followed by tropicamide. The area surrounding the eye was swabbed with an ophthalmic Betadine solution.
(§3) For both studies, animals were euthanized at the indicated time points. Eyes were enucleated, snap frozen in liquid nitrogen, and stored frozen until dissection for collection of vitreous, retina, and RPE/choroid for bioanalysis. […] For statistical determination, all values that were below the lower limit of quantification (LLOQ) were considered zero. Pharmacokinetic analysis was performed from the composite concentration versus time data generated for ocular tissue samples through Day 84 using Phoenix WinNonlin (version 8.5.2.4) software.
For data set [2] the following is noted: rabbit, in vivo.
From the text: (§4) Prior to injection, each eye was moistened with an ophthalmic Betadine solution, which was then washed out of the eyes with sterile saline. Then, 0.5% proparacaine was applied to the ocular surface prior to the injection.
as §3
Data set [3] is described as follows: in vivo. To be noted: Dutch-belted, rabbit.
From the text: as §4, §3
A short description of data set [4]: in vivo. To be noted: Göttingen, minipig.
Method: as §2, §3
For data set [5] the following is noted: minipig, in vivo. This is another data set of the same source.
Method: as §2, §3
For data set [6] the following is noted: human, in vivo; cited from earlier work.
In a further data set the test system is GA lesion growth. Details: method as in PMID 37696275, PMID 37865470. To be noted: patients with geographic atrophy, after one year of treatment, relative to sham; range given for either agent; cited from earlier work.
The test system of data set [7] is IBA1+ inflammatory cells in the retina. The data set is described as follows: IBA1+ cell count in retinal flatmounts of CS/HFD apoB100 mice. It counts as in vivo. To be noted: chronic CS/HFD, two IVT injections, p < 0.000001. As for the experimental part: (§1) At 8 weeks of age, male and female mice were placed in a smoking chamber for 5 h/day, 5 days/week for 6 months following our published protocol.
For retinal and RPE flatmount immunofluorescence confocal microscopy, mice were euthanized and eyes enucleated (7 eyes/treatment group) to be processed for staining for IBA1 (microglia/monocyte marker) and ZO-1 (RPE morphology). The anterior segments were removed, and the retina was carefully separated from the RPE/choroid complex. Tissues were fixed in 2% paraformaldehyde in Tris-buffered saline (TBS) at 4 °C overnight. Retina flatmounts were processed with TBS/1% bovine serum albumin (BSA) and 5% donkey serum overnight at 4 °C. The flatmounts were then incubated with goat polyclonal anti-AIF-1/IBA1 antibody (1:50; Novus biologicals, Centennial, CO, USA) for 48 h at 4 °C, washed, and incubated with donkey anti-goat Cy3 secondary antibody (Abcam, Cambridge, MA, USA) overnight at 4 °C [27]. […] For retinal quadrants, microglia/monocytes/macrophages, defined by IBA1-immunolabeled cell bodies, were counted in five 20 × power fields per flatmount. For RPE/choroid quadrants, each image was used to measure the RPE cell aspect ratio and the average size per cell using ImageJ after setting a threshold as indicated by the software At least 15 cells were measured/experimental group, with n = 5 animals/group, using our previously published protocol.

Data set [8] concerns retinal pigment epithelium (RPE). Nature of the data set: Delayed sodium iodate challenge rabbit model, RPE lesion area by fluorescein angiography. It counts as in vivo, Dutch-belted rabbit. The note with it: for protection against sodium iodate-induced lesion (lesion size): no statistically significant difference between the two doses. As for the experimental part: A 20 mg/mL stock solution of sodium iodate (NaIO3, Sigma Aldrich, St. Louis, MO, USA, Cat#54007) was prepared in sterile 0.9% injectable saline (Cytiva, Marlborough, MA, USA, Z1376), aliquoted into single-use vials, and stored at −20 °C until use. On the day of dosing, aliquots were thawed at room temperature and used immediately. For NaIO3 administration, rabbits were weighed and anesthetized with 2–5% isoflurane (Dechra, Norwich, United Kingdom, 17033-094-25) delivered in medical-grade oxygen at a flow rate of 1.0 to 1.5 L/min via chamber until sedated, then moved to facemask for the injection procedure. The left ear was shaved and disinfected with […] prior to intravenous injection. An indwelling catheter was inserted into the marginal ear vein and flushed with sterile 0.9% injectable saline to ensure patency. Sodium iodate was administered intravenously at a dose of 18 mg/kg body weight, followed by a 0.3 mL saline flush. […] Ten animals were used in each treatment group and 6 animals served as the naïve control group.
Fluorescein angiography was performed following topical anesthesia of the rabbit eyes with proparacaine hydrochloride 0.5% (Akorn, 24208-730-06) and pharmacologic dilation with tropicamide (Akorn, 17478-102-12) and phenylephrine (Akorn, 17478-206-12). The rabbits were anesthetized with isoflurane and the ear was prepared as stated above. A 50 µL bolus of 10% sodium fluorescein (Akorn, 59399-001-04) was injected into the marginal ear vein and allowed to circulate for at least 2 min prior to imaging. Fundus images were captured (Spectralis, Heidelberg Engineering) to document and quantify the extent of visible choroidal and RPE degeneration in both eyes. The area of RPE depigmentation was quantified using ImageJ software (version 1.51j8). In certain cases where the damage extended well into the periphery it was not possible to image the entire edge of the affected area, and these cases were labeled “too large to grade” and were excluded from the final analysis.
With a favorable pharmacokinetic profile, we next evaluated the durability of ONL1204 protection. […] The dose of the systemic sodium iodate had been selected based on a titration that identified a level of systemic sodium iodate that led to localized and quantifiable damage to the rabbit RPE. This damage was assessed one day after sodium iodate administration by quantifying the depigmented lesion area, defined as regions of visible choroid (“window defect”) on fluorescein angiography (Figure 3A,B).

For data set [9] the test system is unchanged. Nature of the data set: Chronic CS/HFD apoB100 mouse model of dry AMD, RPE morphology on ZO-1 flatmounts. The data set is classed as in vivo. To be noted: apoB100 mice, 6 months CS/HFD, two IVT injections 6 weeks apart; p < 0.05. The source says:
For the mouse study, an equal number of male and female apolipoproteinB100 (apoB100) mice on a C57/S129 background were used. These animals carry a mutation in the editing gene apobec1, resulting in the predominant production of apoB100 in these mice, contrasting to the majority of mice that predominantly produce apoB48 [24]. For all mice strains, the rd8 mutation was bred out. Mice were fed a standard diet until they were put in the smoking chamber and then were fed a high-fat diet (HFD) consisting of 60% fat, 20% protein, and 20% carbohydrate (Research Diets, Inc., New Brunswick, NJ, USA). The study was approved by the Johns Hopkins IACUC. […]
For retinal and RPE flatmount immunofluorescence confocal microscopy, mice were euthanized and eyes enucleated (7 eyes/treatment group) to be processed for staining for IBA1 (microglia/monocyte marker) and ZO-1 (RPE morphology). […] For retinal quadrants, microglia/monocytes/macrophages, defined by IBA1-immunolabeled cell bodies, were counted in five 20 × power fields per flatmount. For RPE/choroid quadrants, each image was used to measure the RPE cell aspect ratio and the average size per cell using ImageJ after setting a threshold as indicated by the software At least 15 cells were measured/experimental group, with n = 5 animals/group, using our previously published protocol.

The next data set relates to caspase-8. The data set is described as follows: Caspase-8 activity assay in RPE lysates of CS/HFD apoB100 mice. It counts as in vivo. To be noted: chronic CS/HFD, two IVT injections, p < 0.05. Here is the method: as §1
After the retina and RPE/choroid were harvested, protein was extracted using RIPA Buffer (Sigma-Aldrich, St Louis, MO, USA) with Proteinase inhibitor and phosphatase inhibitor. Nine eyes per treatment group were used in this assay, and each sample included 75 μg of protein to standardize the amount of tissue with the Luminescent Caspase-Glow 8 assay kit (Promega, Madison, WI, USA) used according to manufacturer’s protocol. […]

The mark [10] stands for this setting: 10 ug/eye, Average concentration of ONL1204 in RPE/choroid.
Where [11] appears, read: 10 ug/eye, Average concentration of ONL1204 in retina.
Where [12] appears, read: 50 ug/eye, Average concentration of ONL1204 in RPE/choroid.
The mark [13] stands for this setting: 50 ug/eye, Average concentration of ONL1204 in retina.
The mark [14] stands for this setting: 100 ug/eye, Average concentration of ONL1204 in RPE/choroid.
The mark [15] stands for this setting: 100 ug/eye, Average concentration of ONL1204 in retina.
Where [16] appears, read: 200 ug/eye, Average concentration of ONL1204 in RPE/choroid.
Where [17] appears, read: 200 ug/eye, Average concentration of ONL1204 in retina.
The mark [18] stands for this setting: 300 ug/eye, Average concentration of ONL1204 in RPE/choroid.
[19] abbreviates: 300 ug/eye, Average concentration of ONL1204 in retina.

Where two headings read alike, the source gives them in different places. No end group written: not given here.

Consider HHIYLGAVNYIY-NH2 [ONL1204], for which the stability in plasma entry is on record as “rapidly broken down by peptidases”. The half-life (commonly the time needed for the level to fall by half in the phase considered) in [1] (half-life calculated from the vitreous humor data) is 112 days. The substance also registered a half-life in [1] (vitreous humor half-life) above 100 days. Besides, the half-life in data set [2] (10 ug, calculated vitreous half-life) is 147 days. For the same substance, in data set [2] (50 ug, calculated vitreous half-life), the half-life is 116 days. The half-life in [2] (100 ug, calculated vitreous half-life) is 124 days. In data set [2] (vitreous humor half-life), this substance came in with a half-life above 100 days. In the data set “in vivo [3]” (setting [10]), this substance displayed a tissue level at time at 24 h of 5.45 ng/g, a tissue level at time at 672 h of 10.5 ng/g, a tissue level at time at 1344 h of 144 ng/g and a tissue level at time at 1992 h of 213 ± 207 ng/g. Further, in “in vivo [3]” (setting [11]), the tissue level at time at 24 h was determined as 11.2 ± 8.4 ng/g, the tissue level at time at 672 h was 51 ± 97.9 ng/g and the tissue level at time at 1344 h turned out to be 14.3 ± 15.1 ng/g. In “in vivo [3]” (setting [12]), this substance yielded a tissue level at time at 24 h of 58 ± 79.8 ng/g, a tissue level at time at 672 h of 92.4 ng/g, a tissue level at time at 1344 h of 61.8 ng/g and a tissue level at time at 1992 h of 209 ± 251 ng/g. Also, in “in vivo [3]” (setting [13]), the tissue level at time at 24 h stood at 75.6 ± 144 ng/g, the tissue level at time at 672 h amounted to 27 ± 36.6 ng/g, the tissue level at time at 1344 h came to 37.8 ± 48.4 ng/g and the tissue level at time at 1992 h is 201 ± 268 ng/g. In “in vivo [3]” (setting [14]), this substance came in with a tissue level at time at 24 h of 174 ± 149 ng/g, a tissue level at time at 672 h of 40.6 ng/g and a tissue level at time at 1344 h of 36.2 ± 41 ng/g. In the data set “in vivo [3]” (setting [15]), this substance displayed a tissue level at time at 24 h of 183 ± 346 ng/g, a tissue level at time at 672 h of 42.3 ± 72.1 ng/g, a tissue level at time at 1344 h of 22.7 ± 27.9 ng/g and a tissue level at time at 1992 h of 86.1 ± 103 ng/g. In “in vivo [4]” (setting [16]), this substance gave a tissue level at time at 144 h of 189 ± 160 ng/g, a tissue level at time at 672 h of 66.5 ± 87.8 ng/g and a tissue level at time at 2112 h of 38.2 ± 21.7 ng/g. In “in vivo [4]” (setting [17]), the tissue level at time at 144 h amounted to 17.8 ± 27.3 ng/g and the tissue level at time at 672 h turned out to be 2.05 ng/g. In “in vivo [4]” (setting [18]), this substance had a tissue level at time at 144 h of 101 ± 91.4 ng/g, a tissue level at time at 672 h of 82.4 ± 34.5 ng/g and a tissue level at time at 2112 h of 29.8 ng/g. In “in vivo [4]” (setting [19]), this substance displayed a tissue level at time at 144 h of 7.2 ± 6.37 ng/g and a tissue level at time at 672 h of 23.8 ± 16.4 ng/g. Moreover, the “half-life calculated from the vitreous humor data” value in data set [5] was 117.18 days. Besides, the “safety in Phase 1 clinical trial” value in [6] is listed as “safe”.

In the case of pegcetacoplan, the “reduction of the rate of GA lesion growth” value in the data set with GA lesion growth is 14–26%.

“HHIYLGAVNYIY-NH2 (C-terminus assumed) [ONL1204]”: the “IBA1+ inflammatory cell infiltration in the retina vs vehicle” value in data set [7] is reported as “decreased”. In addition, the “protection against sodium iodate-induced lesion (lesion size)” value is reported as “comparable levels of protection” in data set [8] (single IVT 25 µg on Day 0, sodium iodate 18 mg/kg i.v. on Day 4) and “comparable levels of protection” in [8] (single IVT 100 µg on Day 0, sodium iodate 18 mg/kg i.v. on Day 4). Besides, the “lesion area vs vehicle-treated controls and 25 µg group” value in [8] (single IVT 100 µg on Day 0, sodium iodate on Day 14) is on record as “significantly smaller lesion areas”; in data set [8] (single IVT 100 µg on Day 0, sodium iodate on Day 28) it was “significantly smaller lesion areas”. Further, the “posterior RPE cell area vs vehicle” value in data set [9] is reported as “significantly lower than the control”. Further, the “Caspase-8 activity in whole RPE lysates vs vehicle” value in the data set with caspase-8 is on record as “significantly reduced”.

For the substance avacincaptad pegol, in the data set with GA lesion growth, the “reduction of the rate of GA lesion growth” value is listed as 14–26%.
